Measured values: patent US20240165273A1, “SELF-ASSEMBLING MOLECULES ENABLING HIGH PERFORMANCE IN VIVO IMAGING IN THE SECOND NEAR INFRARED (NIR-II) WINDOW” (Baylor College of Medicine, priority 2022, published 2024)
Entries after “also recorded” stand apart in the source; their conditions may differ.

Columns and labels:
[1] = Photostability under continuous laser excitation in PBS and bovine plasma; type: physicochemical
HPV-positive mEER tumor = test: In vivo NIR-II tumor imaging, mEER tumor model; set-up: species or system mouse; conditions: mEER tumor bearing mice, i.v., 5 mg/kg or similar dose
Description: (§1) Applicants hypothesized that intravenous administration of NIR-II dyes such as XW-03-66, has the potential to accumulate in these tumors via the EPR effect, thus enabling NIR-II image-guided intraoperative resection with improved adequate margin delineation. To test this hypothesis, two different syngeneic murine models of head and neck squamous cell carcinoma were used: (1) the human papillomavirus (HPV)-positive mEER tumor model, featuring murine pharyngeal epithelial cells transformed with HPV16 E6 and E7 oncogenes and H-ras, and (2) HPV-ve, the carcinogen induced Mouse Oral Cancer 2 (MOC2) tumor model.
(§2) Test mice (n=4 for each model) were first subjected to preoperative MRI scans to establish presence of the tumor. Following MRI confirmation, tumor-bearing mice were administered XW-03-66 (dose=5 mg/kg) by tail vein injection. For comparison, a similar number of mice with MRI-confirmed tumors were injected with clinically approved ICG at a similar dose. To monitor dynamics of tumor uptake, NIR-II images were collected at different time intervals over a period of seven days.

[2] = system: Mouse Oral Cancer 2 (MOC2) tumor; test: In vivo NIR-II tumor imaging, MOC2 tumor model
Description: as §1, §2

[3] = in 20 minutes post-intravenous injection; cited from earlier work
[4] = Optical properties (absorption, emission, quantum yield, solution) in PBS; type: physicochemical; conditions: PBS (50 μM)
[5] = in PBS; cited from earlier work
serum albumin = serum albumin (Homo sapiens, UniProt P02768); conditions: binding with serum albumin in solution; cited from earlier work
serum albumin, sequence (P02768 25-609): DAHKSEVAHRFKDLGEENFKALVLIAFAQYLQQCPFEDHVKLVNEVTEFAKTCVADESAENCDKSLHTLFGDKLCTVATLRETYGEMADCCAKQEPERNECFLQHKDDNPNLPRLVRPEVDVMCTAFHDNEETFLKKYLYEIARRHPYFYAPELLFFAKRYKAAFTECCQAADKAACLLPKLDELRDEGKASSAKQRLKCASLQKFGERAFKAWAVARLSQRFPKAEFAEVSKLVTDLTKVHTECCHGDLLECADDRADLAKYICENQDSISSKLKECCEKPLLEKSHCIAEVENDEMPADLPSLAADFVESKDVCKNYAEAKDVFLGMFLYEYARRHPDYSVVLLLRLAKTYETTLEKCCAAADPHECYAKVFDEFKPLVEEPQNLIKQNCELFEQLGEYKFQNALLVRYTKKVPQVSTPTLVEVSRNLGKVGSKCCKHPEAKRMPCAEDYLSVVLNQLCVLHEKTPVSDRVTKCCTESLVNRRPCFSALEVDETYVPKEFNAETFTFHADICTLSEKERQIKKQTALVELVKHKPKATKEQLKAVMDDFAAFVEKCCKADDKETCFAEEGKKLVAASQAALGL

Q: For `CC1(C)C(/C=C/C=C/C=C/C=C2\N(CCCCS(=O)(=O)O)c3ccc4ccccc4c3C2(C)C)=[N+](CCCCS(=O)(=O)[O-])c2ccc3ccccc3c21` [ICG, indocyanine green], which “time of drop in fluorescence to baseline” value [1] is on record?
A: Its value is at most 30 min.

Q: And the NIR-II tumor signal (HPV-positive mEER tumor)?
A: Its NIR-II tumor signal is “no signal uptake in either tumor model; also recorded: faint tumor signals at 1-2 h, and no apparent signal thereafter”.

Q: And the NIR-II tumor signal ([2]; MOC2 tumor bearing mice, i.v., 5 mg/kg or similar dose, 5 mg/kg)?
A: The NIR-II tumor signal was “no signal uptake in either tumor model; also recorded: faint tumor signal at 1-2 h, and no apparent signal thereafter”.

Q: What about the liver signal ([2]; tumor-bearing mice, model not distinguished) of the same compound?
A: Its liver signal is “observed in the liver in images captured within the first four hours, but completely disappeared thereafter”.

Q: And the “fraction removed from circulation via the liver” value [3]?
A: The value was 97%.

Q: What about the “dissolution in PBS” value [4] of the same compound?
A: Its value is “dissolve in PBS resulting in clear solutions”.

Q: And the “NIR-II QY” value [5]?
A: Its value is 0.042%.

Q: And the “factor of fluorescence increase compared to solution in PBS” value (serum albumin)?
A: The value was 23.
